The subject of assay [1] is Phytophthora infestans (the causal agent of tomato late blight). As to the kind of experiment: whole plant or invertebrate. It is filed as in vivo. The following applies: for TLB Obsd (disease control rating): Table B; for TLB Obsd: component (b) alone.
For assay [2], the system named is Pseudoperonospora cubensis (the causal agent of cucumber downy mildew). Briefly: Test B: cucumber downy mildew, preventive spray on cucumber seedlings. It is filed as in vivo. The following applies: for CDM Obsd (disease control rating): Table B.
Where [3] appears, read: Phytophthora infestans, read-out: TLB Obsd (observed effect, tomato late blight), component (b) alone, 10 ppm.
The mark [4] stands for this setting: Phytophthora infestans, read-out: TLB Obsd (observed effect, tomato late blight), component (b) alone, 40 ppm.
The mark [5] stands for this setting: Phytophthora infestans, read-out: TLB Obsd (observed effect, tomato late blight), component (b) alone, 200 ppm.
[6] abbreviates: Pseudoperonospora cubensis, component (b) alone, 10 ppm, read-out: CDM Obsd (observed effect, cucumber downy mildew).
The mark [7] stands for this setting: Pseudoperonospora cubensis, component (b) alone, 40 ppm, read-out: CDM Obsd (observed effect, cucumber downy mildew).
Setting [8] is: Pseudoperonospora cubensis, component (b) alone, 200 ppm, read-out: CDM Obsd (observed effect, cucumber downy mildew).
[9] abbreviates: component (b) alone 0.08 ppm (Compound 1 0 ppm).
Where [10] appears, read: component (b) alone 0.4 ppm (Compound 1 0 ppm).
Setting [11] is: component (b) alone 2 ppm (Compound 1 0 ppm).
Where [12] appears, read: component (b) alone 10 ppm (Compound 1 0 ppm).

Like-named read-outs stand apart in the source and are kept apart here.

Regarding `Fc1ccc(Oc2ccnc3cc(Cl)cc(Cl)c23)cc1` [quinoxyfen], the pest or weed control at 0.016 ppm turned out to be 9% in assay [1] (Phytophthora infestans, read-out: TLB Obsd, Table E, component (b) alone at 0.016 ppm) and 26% in assay [2] (Pseudoperonospora cubensis, Table F, component (b) alone at 0.016 ppm, read-out: CDM Obsd). Also, the pest or weed control at 0.08 ppm amounted to 24% in assay [1] (Phytophthora infestans, read-out: TLB Obsd, Table E, component (b) alone at 0.08 ppm) and 26% in assay [2] (Pseudoperonospora cubensis, Table F, component (b) alone at 0.08 ppm, read-out: CDM Obsd). Besides, the pest or weed control at 0.4 ppm in assay [1] (Phytophthora infestans, read-out: TLB Obsd, Table E, component (b) alone at 0.4 ppm) turned out to be 26%; in assay [1] (Phytophthora infestans, read-out: TLB Obsd, component (b) alone, 0.4 ppm) it was 0%; in assay [2] (Pseudoperonospora cubensis, Table F, component (b) alone at 0.4 ppm, read-out: CDM Obsd), 26%; in assay [2] (Pseudoperonospora cubensis, component (b) alone, 0.4 ppm, read-out: CDM Obsd) it was 0%. In addition, the pest or weed control at 2 ppm in assay [1] (Phytophthora infestans, read-out: TLB Obsd, Table E, component (b) alone at 2 ppm) was determined as 9%; in assay [1] (Phytophthora infestans, read-out: TLB Obsd, component (b) alone, 2 ppm) it was 7%; in assay [2] (Pseudoperonospora cubensis, Table F, component (b) alone at 2 ppm, read-out: CDM Obsd) it was 26%; in assay [2] (Pseudoperonospora cubensis, component (b) alone, 2 ppm, read-out: CDM Obsd), 0%. The pest or weed control at 10 ppm in assay [1] (Phytophthora infestans, read-out: TLB Obsd, Table E, component (b) alone at 10 ppm) turned out to be 9%; in assay [1] (Phytophthora infestans, read-out: TLB Obsd, component (b) alone, 10 ppm), 7%; in assay [2] (Pseudoperonospora cubensis, Table F, component (b) alone at 10 ppm, read-out: CDM Obsd) it was 26%; in assay [2] (Pseudoperonospora cubensis, component (b) alone, 10 ppm, read-out: CDM Obsd), 0%. The pest or weed control at 40 ppm in assay [1] (Phytophthora infestans, read-out: TLB Obsd, component (b) alone, 40 ppm) is 0%; in assay [2] (Pseudoperonospora cubensis, component (b) alone, 40 ppm, read-out: CDM Obsd), 0%. Moreover, the pest or weed control at 200 ppm in assay [1] (Phytophthora infestans, read-out: TLB Obsd, component (b) alone, 200 ppm) was found to be 0%; in assay [2] (Pseudoperonospora cubensis, component (b) alone, 200 ppm, read-out: CDM Obsd) it was 0%.
With `CCNC(=O)NC(=O)/C(C#N)=N/OC` [cymoxanil], the pest or weed control at 0.4 ppm in assay [1] (Phytophthora infestans, read-out: TLB Obsd (disease control rating), Table A, component (b) alone 0.4 ppm) is 9%; in assay [2] (Pseudoperonospora cubensis, Table A, component (b) alone 0.4 ppm, read-out: CDM Obsd (disease control rating)), 47%; in assay [2] (Pseudoperonospora cubensis, Table G, component (b) alone at 0.4 ppm, read-out: CDM Obsd), 26%. Also, the pest or weed control at 2 ppm in assay [1] (Phytophthora infestans, read-out: TLB Obsd (disease control rating), Table A, component (b) alone 2 ppm) amounted to 76%; in assay [1] (Phytophthora infestans, read-out: TLB Obsd (observed effect, tomato late blight), component (b) alone, 2 ppm) it was 46%; in assay [2] (Pseudoperonospora cubensis, Table A, component (b) alone 2 ppm, read-out: CDM Obsd (disease control rating)), 47%; in assay [2] (Pseudoperonospora cubensis, Table G, component (b) alone at 2 ppm, read-out: CDM Obsd), 26%; in assay [2] (Pseudoperonospora cubensis, component (b) alone, 2 ppm, read-out: CDM Obsd (observed effect, cucumber downy mildew)), 0%. The pest or weed control at 10 ppm in assay [1] (Phytophthora infestans, read-out: TLB Obsd (disease control rating), Table A, component (b) alone 10 ppm) is 100%; in assay [1] (setting [3]) it was 100%; in assay [2] (Pseudoperonospora cubensis, Table A, component (b) alone 10 ppm, read-out: CDM Obsd (disease control rating)), 47%; in assay [2] (Pseudoperonospora cubensis, Table G, component (b) alone at 10 ppm, read-out: CDM Obsd), 26%; in assay [2] (setting [6]), 0%. In addition, the pest or weed control at 40 ppm in assay [1] (Phytophthora infestans, read-out: TLB Obsd (disease control rating), Table A, component (b) alone 40 ppm) was found to be 100%; in assay [1] (setting [4]), 100%; in assay [2] (Pseudoperonospora cubensis, Table A, component (b) alone 40 ppm, read-out: CDM Obsd (disease control rating)), 47%; in assay [2] (Pseudoperonospora cubensis, Table G, component (b) alone at 40 ppm, read-out: CDM Obsd), 26%; in assay [2] (setting [7]), 0%. The pest or weed control at 200 ppm in assay [1] (Phytophthora infestans, read-out: TLB Obsd (disease control rating), Table A, component (b) alone 200 ppm) worked out at 100%; in assay [1] (setting [5]), 100%; in assay [2] (Pseudoperonospora cubensis, Table A, component (b) alone 200 ppm, read-out: CDM Obsd (disease control rating)) it was 47%; in assay [2] (Pseudoperonospora cubensis, Table G, component (b) alone at 200 ppm, read-out: CDM Obsd), 26%; in assay [2] (setting [8]), 21%. Further, the pest or weed control at 0.04 ppm in assay [1] (Phytophthora infestans, read-out: TLB Obsd (observed effect, tomato late blight), component (b) alone, 0.04 ppm) is 44%; in assay [2] (Pseudoperonospora cubensis, component (b) alone, 0.04 ppm, read-out: CDM Obsd (observed effect, cucumber downy mildew)), 15%.
Consider `O=C(NCc1ncc(C(F)(F)F)cc1Cl)c1c(Cl)cccc1Cl` [fluopicolide], for which the “TLB Obsd (disease control rating)” value came out at 26% in assay [1] (component (b) alone 0.08 ppm); 9% in assay [1] (component (b) alone 0.4 ppm); 59% in assay [1] (component (b) alone 2 ppm); 100% in assay [1] (component (b) alone 10 ppm); 100% in assay [1] (component (b) alone 40 ppm). The “TLB Obsd” value is on record as 7% in assay [1] (0.08 ppm); 0% in assay [1] (0.4 ppm); 90% in assay [1] (2 ppm); 100% in assay [1] (10 ppm); 100% in assay [1] (40 ppm). Further, the “CDM Obsd (disease control rating)” value in assay [2] (component (b) alone 0.08 ppm) stood at 47%; in assay [2] (component (b) alone 0.4 ppm) it was 47%; in assay [2] (component (b) alone 2 ppm) it was 94%; in assay [2] (component (b) alone 10 ppm) it was 100%; in assay [2] (component (b) alone 40 ppm) it was 100%. In addition, the “CDM Obsd” value is reported as 33% in assay [2] (setting [9]); 79% in assay [2] (setting [10]); 96% in assay [2] (setting [11]); 100% in assay [2] (setting [12]); 100% in assay [2] (component (b) alone 40 ppm (Compound 1 0 ppm)); 0% in assay [2] (component (b) alone, 0.08 ppm). For the same compound, the “CDM Obsd” value in assay [2] (component (b) alone, 0.4 ppm) amounted to 0%; in assay [2] (component (b) alone, 2 ppm), 83%; in assay [2] (component (b) alone, 10 ppm) it was 100%; in assay [2] (component (b) alone, 40 ppm), 100%.
Take `CCCOC(=O)NCCCN(C)C` [propamocarb]: the pest or weed control at 10 ppm in assay [1] (setting [3]) was 0%; in assay [1] (Phytophthora infestans, read-out: TLB Obsd, Table D, component (b) alone at 10 ppm), 6%; in assay [2] (Pseudoperonospora cubensis, Table D, component (b) alone at 10 ppm, read-out: CDM Obsd) it was 47%; in assay [2] (setting [6]) it was 46%. Further, the pest or weed control at 40 ppm was determined as 0% in assay [1] (setting [4]); 6% in assay [1] (Phytophthora infestans, read-out: TLB Obsd, Table D, component (b) alone at 40 ppm); 47% in assay [2] (Pseudoperonospora cubensis, Table D, component (b) alone at 40 ppm, read-out: CDM Obsd); 31% in assay [2] (setting [7]). In addition, the pest or weed control at 200 ppm turned out to be 0% in assay [1] (setting [5]); 19% in assay [1] (Phytophthora infestans, read-out: TLB Obsd, Table D, component (b) alone at 200 ppm); 58% in assay [2] (Pseudoperonospora cubensis, Table D, component (b) alone at 200 ppm, read-out: CDM Obsd); 86% in assay [2] (setting [8]). Further, the pest or weed control at 1000 ppm in assay [1] (Phytophthora infestans, read-out: TLB Obsd (observed effect, tomato late blight), component (b) alone, 1000 ppm) turned out to be 38%; in assay [1] (Phytophthora infestans, read-out: TLB Obsd, Table D, component (b) alone at 1000 ppm), 57%; in assay [2] (Pseudoperonospora cubensis, Table D, component (b) alone at 1000 ppm, read-out: CDM Obsd), 76%; in assay [2] (Pseudoperonospora cubensis, component (b) alone, 1000 ppm, read-out: CDM Obsd (observed effect, cucumber downy mildew)), 99%. The pest or weed control at 5000 ppm is 92% in assay [1] (Phytophthora infestans, read-out: TLB Obsd (observed effect, tomato late blight), component (b) alone, 5000 ppm); 77% in assay [1] (Phytophthora infestans, read-out: TLB Obsd, Table D, component (b) alone at 5000 ppm); 98% in assay [2] (Pseudoperonospora cubensis, Table D, component (b) alone at 5000 ppm, read-out: CDM Obsd); 100% in assay [2] (Pseudoperonospora cubensis, component (b) alone, 5000 ppm, read-out: CDM Obsd (observed effect, cucumber downy mildew)). Besides, the pest or weed control at 10 µg/mL in assay [2] (Pseudoperonospora cubensis, component (b) alone 10 ppm (Compound 1 0 ppm), read-out: CDM Obsd) amounted to 47%. In addition, in assay [2] (Pseudoperonospora cubensis, component (b) alone 40 ppm (Compound 1 0 ppm), read-out: CDM Obsd), the pest or weed control at 40 µg/mL turned out to be 47%. Further, the pest or weed control at 200 µg/mL in assay [2] (Pseudoperonospora cubensis, component (b) alone 200 ppm (Compound 1 0 ppm), read-out: CDM Obsd) was 94%. In addition, the pest or weed control at 1000 µg/mL in assay [2] (Pseudoperonospora cubensis, component (b) alone 1000 ppm (Compound 1 0 ppm), read-out: CDM Obsd) turned out to be 100%. Moreover, the pest or weed control at 5000 µg/mL in assay [2] (Pseudoperonospora cubensis, component (b) alone 5000 ppm (Compound 1 0 ppm), read-out: CDM Obsd) worked out at 100%.
Turning to `CCNc1nc(CC)c(C(=O)NC(C#N)c2cccs2)s1` (centres unmarked) [ethaboxam], the “TLB Obsd” value in assay [1] (0.016 ppm) was 22%; in assay [1] (0.08 ppm), 15%; in assay [1] (0.4 ppm) it was 95%; in assay [1] (2 ppm), 87%; in assay [1] (10 ppm) it was 100%. For the same compound, the “CDM Obsd” value in assay [2] (component (b) alone 0.016 ppm (Compound 1 0 ppm)) was found to be 47%; in assay [2] (setting [9]) it was 47%; in assay [2] (setting [10]), 47%; in assay [2] (setting [11]), 82%; in assay [2] (setting [12]) it was 100%; in assay [2] (component (b) alone, 0.016 ppm), 0%. For the same compound, the “CDM Obsd” value in assay [2] (component (b) alone, 0.08 ppm) amounted to 0%; in assay [2] (component (b) alone, 0.4 ppm), 41%; in assay [2] (component (b) alone, 2 ppm), 100%; in assay [2] (component (b) alone, 10 ppm) it was 100%.
